“Also recorded” adds a separate entry of the source.
Experiments:
[1] = tested on: RPB1 in C342T XPB mutant cell line; assay: RPB1 degradation in C342T XPB knock-in cells, western blot; format: cell-based, human; conditions: C342T XPB mutant cell line, compound 1 up to 3 mM (so in the source)
From the text: Cells and culture conditions. Primary astrocytes (Lonza, Walkersville, Md.; ABM™ Basal Media with AGM™ SingleQuots™ Supplement Pack), fibroblast (ATCC; Fibroblast Basal Medium (ATCC© PCS-201-030™) with Fibroblast Growth Kit-Serum-free (ATCC© PCS-201-040™)), airway epithelial cell (ATCC; Airway Epithelial Cell Basal Medium (ATCC© PCS-300-030™) with Bronchial Epithelial Cell Growth Kit (ATCC© PCS-300-040™)), renal proximal tubule (ATCC; Renal Epithelial Cell Basal Medium (ATCC© PCS-400-030™) with Renal Epithelial Cell Growth Kit (ATCC© PCS-400-040™)), prostate epithelial cell (Lonza; PrEGM™ BulletKit™) and mammary epithelial cell (Lonza; MEBM™ BulletKit™) were kept in a humidified incubator at 37° C. adjusted to 5% CO2. […]
Western blot analysis. […] Antibody-protein complexes were detected using enhanced chemiluminescence (ECL) immunoblotting detection reagent (EMD Millipore).

[2] = molecular target: T1, TFIIH (Homo sapiens, UniProt P19447); assay: DNA-dependent ATPase activity assay of TFIIH; format: biochemical
T1 construct: made in house
Experimental: ATPase activity assay. The TFIIH complex was purified and its DNA-dependent ATPase assay was performed as previously described (Titov et al. (2011) Nat. Chem. Biol. 7:182-88). Briefly, a 10-μl reaction mixture contained 20 mM Tris (pH 7.9), 4 mM MgCl2, 1 μM of ATP, 0.1 μCi [^γ-^32P]ATP (3000 Ci/mmol), 100 μg/ml BSA, 100 nM RNA Polymerase II promoter positive control DNA, 1 nM TFIIH and indicated concentrations of triptolide or its analogs. The reactions were started by either addition of TFIIH for 2 hr and stopped by addition of 2 μl of 0.5 M EDTA. An aliquot of 1 μl reaction mixture was spotted on PEI-cellulose (sigma) and the chromatogram was developed with 0.5 M LiCi and 1 M HCOOH. The percent of ATP hydrolysis was quantified using a Typhoon FLA 9500 Variable Imager (GE Healthcare).

[3] = tested on: DLD-1 WT cells; assay: DLD-1 WT proliferation under hypoxia or normoxia; format: cell-based; conditions: Homo sapiens; WT DLD-1 cells, hypoxic conditions (1% oxygen)
[4] = Stability of glutriptolides in human serum (HPLC-MS); format: in vitro ADME; conditions: incubation for up to 72 h
Experimental: Stability of glutriptolides in human serum. Human serum (Sigma, 10% in DMEM media) was treated with 10 μM drug (triptolide or glutriptolides) at room temperature for various time points. The incubation was stopped by placing samples on dry ice followed by overnight storage in −80° C. Frozen samples were then lyophilized and reconstituted in DMSO at room temperature for an hour. Samples were centrifuged at 12,000 RPM for 10 minutes and supernatants loaded into an HPLC-MS with the following conditions: (Varian pursuit XR5 Diphenyl 150×4.6 mm; A phase: Millipore water with 0.1% HCOOH; B phase: Acetonitrile with 0.1% HCOOH; 0-6 min: […]; 6-24 min: 5% B-100% B; 24-28 min: 100% B; 28-29 min: 100% B5% B; 29-30 min: 5% B).

[5] = tested on: DLD-1 GLUT1 knockout (GLUT1 KO) cells; assay: DLD-1 GLUT1 knockout proliferation under hypoxia or normoxia; format: cell-based, human

## CC(C)[C@]12O[C@H]1[C@@H]1O[C@]13[C@]1(O[C@H]1C[C@H]1C4=C(CC[C@@]13C)C(=O)OC4)[C@@H]2OC(=O)CCCO[C@@H]1OC(CO)[C@@H](O)C(O)C1O (stereo in doubt) [Compound 1]
[1]
  RPB1 level: remained stable
[2]
  inhibition of ATPase activity of TFIIH: only a small fraction of the activity was affected; also recorded: does not inhibit
[3]
  IC50: 1300 nM
[4]
  stability in human serum: remained largely intact
[5]; Homo sapiens, DLD-1, GLUT1 knockout cell line, hypoxic conditions (1% oxygen)
  IC50: 2500 nM
[5]; normoxia (20% oxygen)
  difference in sensitivity between DLD-1 WT and GLUT1 KO: no difference in sensitivity

From patent US20230134986A1, “GLUCOSE TRIPTOLIDE CONJUGATES AND USES THEREOF” (The Johns Hopkins University, priority 2020, published 2023)
